In brackets after ≈: the same amount, converted by molar mass.
Columns and labels:
[1] = molecular target: T1, PBP3 from Acinetobacter baumannii (ATCC 19606) (Acinetobacter baumannii, UniProt A0ABX6CK25); experiment: Bocillin-FL fluorescence polarization competition binding, A. baumannii PBP3; details: fluorescence polarization competition binding assay using Bocillin-FL; read-out: A. baumannii PBP3 Potency
T1 sequence (A0ABX6CK25 64-610): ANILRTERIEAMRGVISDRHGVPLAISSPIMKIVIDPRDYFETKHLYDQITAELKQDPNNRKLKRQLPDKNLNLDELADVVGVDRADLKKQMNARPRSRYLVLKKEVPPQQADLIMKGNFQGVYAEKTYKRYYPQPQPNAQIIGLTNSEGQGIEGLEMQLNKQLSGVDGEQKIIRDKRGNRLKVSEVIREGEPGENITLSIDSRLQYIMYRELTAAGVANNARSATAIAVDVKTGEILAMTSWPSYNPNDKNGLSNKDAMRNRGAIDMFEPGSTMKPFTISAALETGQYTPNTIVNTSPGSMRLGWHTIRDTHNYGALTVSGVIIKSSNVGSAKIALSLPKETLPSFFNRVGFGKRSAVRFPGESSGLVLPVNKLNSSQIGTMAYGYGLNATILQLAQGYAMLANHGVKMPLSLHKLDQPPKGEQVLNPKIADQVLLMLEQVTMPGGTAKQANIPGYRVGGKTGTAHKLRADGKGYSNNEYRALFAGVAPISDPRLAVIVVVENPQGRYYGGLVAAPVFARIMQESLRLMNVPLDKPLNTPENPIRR
Summary of the method: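 Purified PBP was preincubated with inhibitor (E. coli PBP3 1.5 μM, 30 min; P. aeruginosa PBP3 0.75 μM, A. baumannii PBP3 0.2 μM and PBP1a 1 μM, 15 min), then Bocillin-FL (0.1 μM; 0.05 μM for PBP1a) added and FP read up to 60 min. EC50 = 50% loss of bound probe.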

P. aeruginosa CDC-0090 = experiment: microbe, parasite or virus in culture; format: cell-based; details: Pseudomonas aeruginosa, CDC0090, read-out: Minimum inhibitory concentration, P. aeruginosa CDC-0090
P. aeruginosa CDC-0110 = experiment: microbe, parasite or virus in culture; format: cell-based; details: Pseudomonas aeruginosa, CDC0110, read-out: Minimum inhibitory concentration, P. aeruginosa CDC-0110
[2] = test system: P. aeruginosa (ΔmexAB-oprM); experiment: Broth microdilution MIC in iron-depleted CAMHB (IDM); format: cell-based; details: Pseudomonas aeruginosa; iron-depleted CAMHB (IDM); […]; read-out: Minimum inhibitory concentration, P. aeruginosa ΔmexAB-oprM

SMILES	IC50 [1]	MIC (P. aeruginosa CDC-0090)	MIC (P. aeruginosa CDC-0110)	MIC [2]
O=C(NCCCN1CCN(C(=O)NC(C(=O)N[C@H]2Cc3ccc(F)c(C(=O)O)c3OB2O)c2cc(F)c(O)c(O)c2Cl)C(=O)C1=O)c1cccc(O)c1F (stereo partly drawn) [Example 406, (3R)-3-(2-(2-chloro-5-fluoro-3,4-dihydroxyphenyl)-2-(4.-(3-(2-fluoro-3-hydroxybenzamido)propyl)-2,3-dioxopiperazine-1-carboxamido)acetamido)-7-fluoro-2-hydroxy-3,4-dihydro-2H-benzo[e][1,2]oxaborinine-8-carboxylic acid]	< 10 µM	< 1 µg/mL	< 1 µg/mL	< 1 µg/mL
O=C(NCCCN1CCN(C(=O)NC(C(=O)N[C@H]2Cc3ccc(F)c(C(=O)O)c3OB2O)c2cc(F)c(O)c(O)c2Cl)C(=O)C1=O)c1cc(O)ccc1Cl (stereo partly drawn) [Example 408, (3R)-3-(2-(2-chloro-5-fluoro-3,4-dihydroxyphenyl)-2-(4-(3-(2-chloro-5-hydroxybenzamido)propyl)-2,3-dioxopiperazine-1-carboxamido)acetamido)-7-fluoro-2-hydroxy-3,4-dihydro-2H-benzo[e][1,2]oxaborinine-8-carboxylic acid]	< 10 µM	< 1 µg/mL	< 1 µg/mL	< 1 µg/mL
O=C(NCCCN1CCN(C(=O)NC(C(=O)N[C@H]2Cc3ccc(F)c(C(=O)O)c3OB2O)c2cc(F)c(O)c(O)c2Cl)C(=O)C1=O)c1ccc(O)c(Cl)c1F (stereo partly drawn) [Example 419, (3R)-3-(2-(4-(3-(3-chloro-2-fluoro-4-hydroxybenzamido)propyl)-2,3-dioxopiperazine-1-carboxamido)-2-(2-chloro-5-fluoro-3,4-dihydroxyphenyl)acetamido)-7-fluoro-2-hydroxy-3,4-dihydro-2H-benzo[e][1,2]oxaborinine-8-carboxylic acid]	< 10 µM	2 to 4 µg/mL (≈ 2.46 to 4.92 µM)	< 1 µg/mL	< 1 µg/mL
O=C(NCCCN1CCN(C(=O)NC(C(=O)N[C@H]2Cc3ccc(F)c(C(=O)O)c3OB2O)c2cc(F)c(O)c(O)c2Cl)C(=O)C1=O)c1cc(O)c(F)c(O)c1F (stereo partly drawn) [Example 415, (3R)-3-(2-(2-chloro-5-fluoro-3,4-dihydroxyphenyl)-2-(4-(3-(2,4-difluoro-3,5-dihydroxybenzamido)propyl)-2,3-dioxopiperazine-1-carboxamido)acetamido)-7-fluoro-2-hydroxy-3,4-dihydro-2H-benzo[e][1,2]oxaborinine-8-carboxylic acid]	< 10 µM	< 1 µg/mL	< 1 µg/mL	< 1 µg/mL
O=C(NCCS(=O)(=O)N1CCN(C(=O)N[C@@H](C(=O)N[C@H]2Cc3ccc(F)c(C(=O)O)c3OB2O)c2cc(F)c(O)c(O)c2Cl)C1=O)Nc1ccncc1 [Example 290, (R)-3-((R)-2-(2-chloro-5-fluoro-3,4-dihydroxyphenyl)-2-(2-oxo-3-((2-(3-(pyridin-4-yl)ureido)ethyl)sulfonyl)imidazolidine-1-carboxamido)acetamido)-7-fluoro-2-hydroxy-3,4-dihydro-2H-benzo[e][1,2]oxaborinine-8-carboxylic acid]	< 10 µM	2 to 4 µg/mL (≈ 2.56 to 5.12 µM)	< 1 µg/mL	< 1 µg/mL
O=C(O)c1c(F)ccc2c1OB(O)[C@@H](NC(=O)C(NC(=O)N1CCN(CC3CCN(C(=O)c4cccc(O)c4)CC3)C(=O)C1=O)c1cc(F)c(O)c(O)c1Cl)C2 (stereo partly drawn) [Example 475, (3R)-3-(2-(2-chloro-5-fluoro-3,4-dihydroxyphenyl)-2-(4-((1-(3-hydroxybenzoyl)piperidin-4-yl)methyl)-2,3-dioxopiperazine-1-carboxamido)acetamido)-7-fluoro-2-hydroxy-3,4-dihydro-2H-benzo[e][1,2]oxaborinine-8-carboxylic acid]	< 10 µM	< 1 µg/mL	< 1 µg/mL	< 1 µg/mL
O=C(O)c1c(F)ccc2c1OB(O)[C@@H](NC(=O)C(NC(=O)N1CCN(C3CCN(C(=O)c4ccc(O)cc4O)CC3)C(=O)C1=O)c1cc(F)c(O)c(O)c1Cl)C2 (stereo partly drawn) [Example 476, (3R)-3-(2-(2-chloro-5-fluoro-3,4-dihydroxyphenyl)-2-(4-(1-(2,4-dihydroxybenzoyl)piperidin-4-yl)-2,3-dioxopiperazine-1-carboxamido)acetamido)-7-fluoro-2-hydroxy-3,4-dihydro-2H-benzo[e][1,2]oxaborinine-8-carboxylic acid]	< 10 µM	< 1 µg/mL	< 1 µg/mL	< 1 µg/mL
O=C(NCCCN1CCN(C(=O)N[C@@H](C(=O)N[C@H]2Cc3ccc(F)c(C(=O)O)c3OB2O)c2cc(F)c(O)c(O)c2Cl)C(=O)C1=O)c1ccnc(F)c1F [Example 300, (R)-3-((R)-2-(2-chloro-5-fluoro-3,4-dihydroxyphenyl)-2-(4-(3-(2,3-difluoroisonicotinamido)propyl)-2,3-dioxopiperazine-1-carboxamido)acetamido)-7-fluoro-2-hydroxy-3,4-dihydro-2H-benzo[e][1,2]oxaborinine-8-carboxylic acid]	< 10 µM	< 1 µg/mL	< 1 µg/mL	< 1 µg/mL
O=C(NCCCN1CCN(C(=O)NC(C(=O)N[C@H]2Cc3ccc(F)c(C(=O)O)c3OB2O)c2cc(F)c(O)c(O)c2Cl)C(=O)C1=O)c1ccc(O)c(F)c1F (stereo partly drawn) [Example 306, (3R)-3-(2-(2-chloro-5-fluoro-3,4-dihydroxyphenyl)-2-(4-(3-(2,3-difluoro-4-hydroxybenzamido)propyl)-2,3-dioxopiperazine-1-carboxamido)acetamido)-7-fluoro-2-hydroxy-3,4-dihydro-2H-benzo[e][1,2]oxaborinine-8-carboxylic acid]	< 10 µM	< 1 µg/mL	< 1 µg/mL	< 1 µg/mL
O=C(NCCS(=O)(=O)N1CCN(C(=O)NC(C(=O)N[C@H]2Cc3ccc(F)c(C(=O)O)c3OB2O)c2cc(F)c(O)c(O)c2Cl)C1=O)c1ccncc1 (stereo partly drawn) [Example 288, (3R)-3-(2-(2-chloro-5-fluoro-3,4-dihydroxyphenyl)-2-(3-((2-(isonicotinamido)ethyl)sulfonyl)-2-oxoimidazolidine-1-carboxamido)acetamido)-7-fluoro-2-hydroxy-3,4-dihydro-2H-benzo[e][1,2]oxaborinine-8-carboxylic acid]	< 10 µM	2 to 4 µg/mL (≈ 2.61 to 5.22 µM)	2 to 4 µg/mL (≈ 2.61 to 5.22 µM)	< 1 µg/mL
O=C(NCCCN1CCN(C(=O)N[C@@H](C(=O)N[C@H]2Cc3ccc(F)c(C(=O)O)c3OB2O)c2cc(F)c(O)c(O)c2Cl)C(=O)C1=O)c1ccncc1O [Example 296, (R)-3-((R)-2-(2-chloro-5-fluoro-3,4-dihydroxyphenyl)-2-(4-(3-(3-hydroxyisonicotinamido)propyl)-2,3-dioxopiperazine-1-carboxamido)acetamido)-7-fluoro-2-hydroxy-3,4-dihydro-2H-benzo[e][1,2]oxaborinine-8-carboxylic acid]	< 10 µM	< 1 µg/mL	< 1 µg/mL	< 1 µg/mL
O=C(NCCCN1CCN(C(=O)N[C@H](C(=O)N[C@H]2Cc3ccc(F)c(C(=O)O)c3OB2O)c2cc(F)c(O)c(O)c2Cl)C1=O)Nc1ccc(O)cc1 [Example 283, (R)-3-((S)-2-(2-chloro-5-fluoro-3,4-dihydroxyphenyl)-2-(3-(3-(3-(4-hydroxyphenyl)ureido)propyl)-2-oxoimidazolidine-1-carboxamido)acetamido)-7-fluoro-2-hydroxy-3,4-dihydro-2H-benzo[e][1,2]oxaborinine-8-carboxylic acid]	50 to 250 µM	> 128 µg/mL	> 128 µg/mL	> 128 µg/mL
O=C(NCCCS(=O)(=O)N1CCN(C(=O)NC(C(=O)N[C@H]2Cc3ccc(F)c(C(=O)O)c3OB2O)c2cc(F)c(O)c(O)c2Cl)C1=O)Nc1ccncc1 (stereo partly drawn) [Example 291, (3R)-3-(2-(2-chloro-5-fluoro-3,4-dihydroxyphenyl)-2-(2-oxo-3-((3-(3-(pyridin-4-yl)ureido)propyl)sulfonyl)imidazolidine-1-carboxamido)acetamido)-7-fluoro-2-hydroxy-3,4-dihydro-2H-benzo[e][1,2]oxaborinine-8-carboxylic acid]	< 10 µM	2 to 4 µg/mL (≈ 2.51 to 5.03 µM)	2 to 4 µg/mL (≈ 2.51 to 5.03 µM)	< 1 µg/mL
O=C(NCCCS(=O)(=O)N1CCN(C(=O)NC(C(=O)N[C@H]2Cc3ccc(F)c(C(=O)O)c3OB2O)c2cc(F)c(O)c(O)c2Cl)C1=O)Nc1cccnc1 (stereo partly drawn) [Example 278, (3R)-3-(2-(2-chloro-5-fluoro-3,4-dihydroxyphenyl)-2-(2-oxo-3-((3-(3-(pyridin-3-yl)ureido)propyl)sulfonyl)imidazolidine-1-carboxamido)acetamido)-7-fluoro-2-hydroxy-3,4-dihydro-2H-benzo[e][1,2]oxaborinine-8-carboxylic acid]	< 10 µM	2 to 4 µg/mL (≈ 2.51 to 5.03 µM)	2 to 4 µg/mL (≈ 2.51 to 5.03 µM)	< 1 µg/mL

— patent US20240270762A1, “PENICILLIN-BINDING PROTEIN INHIBITORS” (priority 2021, published 2024)
